Assay results as given in patent publication US20030152953A1, “Polynucleotide encoding a novel human potassium channel alpha-subunit, K+alphaM2” (priority 2001, published 2003).
Where two headings read alike, the source gives them in different places.

Key:
Kv2.2 = molecular target: T1, Kv2.2 (UniProt Q92953); settings: cited from earlier work; for IC50: read-out: IC50, inhibition of Kv2.2 current
T1 sequence (Q92953 1-911): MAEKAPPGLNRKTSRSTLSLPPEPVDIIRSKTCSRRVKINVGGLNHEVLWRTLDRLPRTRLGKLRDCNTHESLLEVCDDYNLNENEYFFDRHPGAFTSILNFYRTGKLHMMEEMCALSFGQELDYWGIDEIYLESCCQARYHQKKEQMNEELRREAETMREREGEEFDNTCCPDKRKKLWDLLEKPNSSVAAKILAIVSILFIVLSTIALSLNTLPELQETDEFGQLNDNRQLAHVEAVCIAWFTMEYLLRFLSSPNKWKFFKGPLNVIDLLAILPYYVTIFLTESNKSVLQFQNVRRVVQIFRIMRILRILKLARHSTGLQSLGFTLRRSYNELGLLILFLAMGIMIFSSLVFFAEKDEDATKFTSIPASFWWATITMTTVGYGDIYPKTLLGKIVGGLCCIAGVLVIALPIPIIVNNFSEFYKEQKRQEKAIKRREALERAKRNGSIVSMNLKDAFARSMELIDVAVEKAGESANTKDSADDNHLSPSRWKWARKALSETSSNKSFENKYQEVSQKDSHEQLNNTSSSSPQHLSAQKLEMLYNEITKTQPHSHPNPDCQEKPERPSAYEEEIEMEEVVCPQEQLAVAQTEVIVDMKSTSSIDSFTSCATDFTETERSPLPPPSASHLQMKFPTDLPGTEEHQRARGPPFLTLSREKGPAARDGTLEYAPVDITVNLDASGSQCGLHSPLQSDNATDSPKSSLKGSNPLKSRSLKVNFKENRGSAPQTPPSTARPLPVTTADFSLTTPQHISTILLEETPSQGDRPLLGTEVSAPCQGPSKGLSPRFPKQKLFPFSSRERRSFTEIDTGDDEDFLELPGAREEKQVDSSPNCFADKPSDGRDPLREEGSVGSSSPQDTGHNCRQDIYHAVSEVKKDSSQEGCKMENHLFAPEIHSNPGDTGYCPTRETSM

[1] = system: slow component of the delayed rectifier current in native colonic myocytes; settings: 1 microM; cited from earlier work
Kv2.1 = Kv2.1 alone; cited from earlier work
Kv2.1/Kv9.1 = settings: cited from earlier work
Human lung fibroblasts = assay: Human lung fibroblast growth, Alamar Blue; assay type: cell-based; settings: 3 days in basal medium
Method: Human lung fibroblasts are obtained from Clonetics (San Diego, Calif.) and maintained in growth media from Clonetics. Dermal microvascular endothelial cells are obtained from Cell Applications (San Diego, Calif.). For proliferation assays, the human lung fibroblasts and dermal microvascular endothelial cells can be cultured at 5,000 cells/well in a 96-well plate for one day in growth medium. The cells are then incubated for one day in 0.1% BSA basal medium. After replacing the medium with fresh 0.1% BSA medium, the cells are incubated with the test proteins for 3 days. Alamar Blue (Alamar Biosciences, Sacramento, Calif.) is added to each well to a final concentration of 10%. The cells are incubated for 4 hr. Cell viability is measured by reading in a CytoFluor fluorescence reader. For the PGE2 assays, the human lung fibroblasts are cultured at 5,000 cells/well in a 96-well plate for one day. […]

[2] = system: nigral dopaminergic neurons; settings: gel foam implants in the striatum; cited from earlier work
[3] = system: nigral dopaminergic neurons; settings: tissue culture paradigms; cited from earlier work
[4] = system: cortical or hippocampal neurons; settings: in vitro; cited from earlier work
[5] = Xenopus oocytes injected with Kv2.2 mRNA

C=C[C@H]1C[N@@]2CC[C@H]1C[C@H]2[C@H](O)c1ccnc2ccc(OC)cc12 [quinine]
IC50 (Kv2.2; [5]): 0.0137 mM | block of delayed rectifier current [1]: preferentially block the slow component of the delayed rectifier current

CC[N+](CC)(CC)CC [tetraethylammonium]
IC50 (Kv2.2): 2.6 mM | sensitivity of currents to blocker (Kv2.1): sensitive | effect on biphasic voltage-dependence of currents (Kv2.1/Kv9.1; 20 mM): eliminate the biphasic voltage-dependence | sensitivity of currents to blocker (Kv2.1/Kv9.1; Kv2.1/Kv9.1): sensitive

charybdotoxin
sensitivity of Kv2.2 current (Kv2.2; [5]): insensitive

FGF-2: FGF-2 (basic FGF), fibroblast growth factor
concentration showing stimulation of fibroblast growth (Human lung fibroblasts): 10 to 2500 ng/mL | protection of nigral dopaminergic neurons from MPTP toxicity [2]: near complete protection | activity towards nigral dopaminergic neurons [3]: trophic activity | neurite outgrowth [4]: increases | neuron survival [4]: increases
